This is an account of results in EP4745134A1 (Jiangsu Yahong Meditech Co., Ltd., priority 2023, dated 2025).

Like-named read-outs stand apart in the source and are kept apart here.

The target of one test is PRMT5-MTA (Homo sapiens, UniProt O14744). The experiment in a line: Enzymatic inhibitory activity against PRMT5-MTA (AlphaScreen). The following applies: read-out: IC50. Format: biochemical. In a few lines:
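PRMT5/[…] (1 nM) was preincubated for 30 min at room temperature with 1 µM […] and 2.5 µM SAM, then exposed to compound (10-point, 3-fold from 1000 nM) for 15 min at 23 °C. Histone H4 substrate (5 nM) was added and reacted for 45 min at 23 °C. Symmetric dimethyl-R3 H4 was detected by AlphaScreen and IC50 calculated.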

For a further test, the system named is HCT116 MTAP KO cells. The experiment in a line: Inhibitory activity against cell proliferation (CellTiter Glo, 6 days), HCT116 MTAP KO. Format: cell-based. Conditions: for IC50: HCT116 MTAP KO cells, 6 days, CellTiter Glo, read-out: HCT116 MTAP KO IC50; for Selectivity HCT 116-WT/ HCT116 MTAP KO: ratio of IC50 HCT116-WT / HCT116 MTAP KO. In a few lines: (§1)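 Following overnight attachment of 250 cells per well in McCoy's 5A medium with 10% FBS, compounds spanning 8 concentrations (4-fold, top 10000 nM) were applied for 6 days. Growth inhibition IC50 was derived from luminescent ATP signal.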
A general note: Cellular ATP, detected with luciferase, serves as a proxy for viable cell number.

The next test concerns HCT116-WT cells. Nature of the test: Inhibitory activity against cell proliferation (CellTiter Glo, 6 days), HCT116-WT. The format is cell-based. Conditions: HCT116-WT cells, 6 days, CellTiter Glo, read-out: HCT116-WT IC50. In a few lines: as §1

Sequence of PRMT5-MTA (O14744 whole entry): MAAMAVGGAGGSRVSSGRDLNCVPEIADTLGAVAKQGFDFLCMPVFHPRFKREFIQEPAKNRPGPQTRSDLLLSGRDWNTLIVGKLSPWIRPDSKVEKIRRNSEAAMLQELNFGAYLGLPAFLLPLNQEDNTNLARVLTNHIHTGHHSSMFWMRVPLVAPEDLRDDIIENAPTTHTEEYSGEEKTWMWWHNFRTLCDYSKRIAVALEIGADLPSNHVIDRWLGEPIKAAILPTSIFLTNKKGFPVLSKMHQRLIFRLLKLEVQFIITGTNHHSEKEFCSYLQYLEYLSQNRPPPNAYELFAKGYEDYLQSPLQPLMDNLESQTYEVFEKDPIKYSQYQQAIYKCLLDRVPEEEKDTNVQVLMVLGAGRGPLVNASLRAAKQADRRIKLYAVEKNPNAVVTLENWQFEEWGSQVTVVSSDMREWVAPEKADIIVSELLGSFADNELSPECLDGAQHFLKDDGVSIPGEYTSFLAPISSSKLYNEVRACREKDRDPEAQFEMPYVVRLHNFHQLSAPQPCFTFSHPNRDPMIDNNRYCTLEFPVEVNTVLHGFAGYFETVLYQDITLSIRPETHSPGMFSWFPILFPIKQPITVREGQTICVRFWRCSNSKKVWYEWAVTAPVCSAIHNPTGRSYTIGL
Sequence of PRMT5-MTA (Q9BQA1 whole entry partner): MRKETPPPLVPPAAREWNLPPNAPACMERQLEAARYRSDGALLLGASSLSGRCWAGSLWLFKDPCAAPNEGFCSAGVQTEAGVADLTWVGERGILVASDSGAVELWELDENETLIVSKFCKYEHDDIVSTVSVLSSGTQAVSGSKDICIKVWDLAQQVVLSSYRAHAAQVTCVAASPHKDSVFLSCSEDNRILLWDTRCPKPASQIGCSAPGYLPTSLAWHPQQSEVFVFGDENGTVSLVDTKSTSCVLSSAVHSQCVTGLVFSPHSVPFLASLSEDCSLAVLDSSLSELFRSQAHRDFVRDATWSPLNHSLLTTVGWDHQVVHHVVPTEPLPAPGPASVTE

With `Cc1cc2cc(C(=O)N(Cc3ccc(C(C)F)cn3)N(C)c3ncccn3)ccc2nc1N` (stereo not shown) [Example 292, 2-amino-N-((5-(1-fluoroethyl)pyridin-2-yl)methyl)-N',3-dimethyl-N'-(pyrimidin-2-yl)q uinoline-6-carbohydrazide], the concentration for half-maximal inhibition (IC50) stood at 1.4 nM at PRMT5-MTA; 50 nM with HCT116 MTAP KO cells (Homo sapiens, HCT-116, 144 h); 1520 nM in the test with HCT116-WT cells (144 h). Besides, in the test with HCT116 MTAP KO cells, the “Selectivity HCT 116-WT/ HCT116 MTAP KO” value is 30.30.
On the same counts, the results for `Cc1cc2cc(C(=O)N(Cc3ccc(C(F)(F)F)cn3)N(C)c3ncc4ccsc4n3)ccc2nc1N` [Example 92, 2-amino-N',3-dimethyl-N'-(thieno[2,3-d]pyrimidin-2-yl)-N-((5-(trifluoromethyl)pyridin-2-yl)methyl)quinoline-6-carbohydrazide] are 2.1 nM, 19 nM, 569 nM and 29.95.
Regarding `Cc1cc2cc(C(=O)N(Cc3ccc(C(F)(F)F)cn3)N(C)c3ncc4ccn(C)c4n3)ccc2nc1N` [Example 126, 2-amino-N',3-dimethyl-N'-(7-methyl-7H-pyrrolo[2,3-d]pyrimidin-2-yl)-N-((5-(trifluoromethyl)pyridin-2-yl)methyl)quinoline-6-carbohydrazide], the IC50 was found to be 1.3 nM at PRMT5-MTA; 90 nM in the test on HCT116 MTAP KO cells (Homo sapiens, HCT-116, 144 h); 1480 nM in the test with HCT116-WT cells (144 h). In addition, the “Selectivity HCT 116-WT/ HCT116 MTAP KO” value in the test on HCT116 MTAP KO cells is 16.41.
On the same counts, the results for `Cc1cc2cc(C(=O)N(Cc3ccc(-c4scnc4C4CC4)cn3)N(c3ncccn3)C3CC3)ccc2nc1N` [Example 240, 2-amino-N'-cyclopropyl-N-((5-(4-cyclopropylthiazol-5-yl)pyridin-2-yl)methyl)-3-methyl-N'-(pyrimidin-2-yl)quinoline-6-carbohydrazide] are 3.9 nM, 36 nM, 396 nM and 11.00.
As for `Cc1cc2cc(C(=O)N(Cc3ccc(C(F)(F)F)cn3)N(C)c3ncccc3F)ccc2nc1N` [Example 5, 2-amino-N'-(3-fluoropyridin-2-yl)-N',3-di methyl-N-((5-(trifluoromethyl)pyridin-2-yl)methyl)quinoline-6-carbohydrazide], the 50% inhibitory concentration (IC50) was determined as 1.5 nM at PRMT5-MTA; 42 nM in the test on HCT116 MTAP KO cells (Homo sapiens, HCT-116, 144 h); 852 nM in the test on HCT116-WT cells (144 h). The “Selectivity HCT 116-WT/ HCT116 MTAP KO” value in the test with HCT116 MTAP KO cells came out at 20.29.
On the same counts, the results for `Cc1cc2cc(C(=O)N(Cc3ccc(C(F)(F)F)cn3)N(C)c3ncccc3C(F)F)ccc2nc1N` [Example 117, 2-amino-N'-(3-(difluoromethyl)pyridin-2-yl)-N',3-dimethyl-N-((5-(trifluoromethyl)pyridin-2-yl)methyl)quinoline-6-carbohydrazide] are 1.8 nM, 89 nM, 1250 nM and 14.00.
Turning to `Cc1cc2cc(C(=O)N(Cc3ccc(C(F)(F)F)cn3)N(C)c3ncc4c(ccn4C)n3)ccc2nc1N` [Compound 127, 2-amino-N',3-dimethyl-N'-(5-methyl-5H-pyrrolo[3,2-d]pyrimidin-2-yl)-N-((5-(trifluoromethyl)pyridin-2-yl)methyl)quinoline-6-carbohydrazide], the IC50 on PRMT5-MTA came out at 4.9 nM; in the test on HCT116 MTAP KO cells (Homo sapiens, HCT-116, 144 h) it was 115 nM; in the test with HCT116-WT cells (144 h), 1900 nM. The “Selectivity HCT 116-WT/ HCT116 MTAP KO” value in the test on HCT116 MTAP KO cells is 16.55.
Take `CN(c1ncccn1)N(Cc1ccc(C(F)(F)F)cn1)C(=O)c1ccc2nc(N)c(Cl)cc2c1` [Example 105, 2-amino-3-chloro-N'-methyl-N'-(pyrimidin-2-yl)-N-((5-(trifluoromethyl)pyridin-2-yl)methyl)quinoline-6-carbohydrazide]: the IC50 in the test with HCT116 MTAP KO cells (Homo sapiens, HCT-116, 144 h) was found to be 202 nM; in the test on HCT116-WT cells (144 h), 3950 nM. Besides, the “Selectivity HCT 116-WT/ HCT116 MTAP KO” value in the test with HCT116 MTAP KO cells came to 19.56.
On the same counts, the results for `Cc1cc2cc(C(=O)N(Cc3ccc(-c4cccs4)cn3)N(C)c3ncccn3)ccc2nc1N` [Example 214, 2-amino-N',3-dimethyl-N'-(pyrimidin-2-yl)-N-((5-(thien-2-yl)pyridin-2-yl)methyl) quinoline-6-carbohydrazide] are 29 nM, 694 nM and 23.93.
The like results for `CC1CN(C(=O)c2cc3c(cc2F)nc(N)c2cnn(C)c23)N(c2ncccc2F)C1` (single isomer, unassigned) [Example 467] were, in that order, 94 nM, 3040 nM and 32.33.
On the same counts, the results for `COCCN(C)c1ccc(-c2ccc(CN(C(=O)c3ccc4nc(N)c(C)cc4c3)N(C)c3ncccn3)nc2)cn1` [Example 254, 2-amino-N-((6'-((2-methoxyethyl)(methyl)amino)-[3,3'-bipyridine]-6-yl)methyl)-N',3-d imethyl-N'-(pyrimidin-2-yl)quinoline-6-carbohydrazide] are 42 nM, 503 nM and 11.98.
On to `Cc1cc2nc(N)c3cnn(C)c3c2cc1C(=O)N1CC(C)CN1c1ncc(Cl)cc1F` (stereo not shown) [Example 394, (4-amino-1,7-dimethyl-1H-pyrazolo[4,3-c]quinolin-8-yl)(2-(5-chloro-3-fluoropyridin-2-yl)-4-methylpyrazolidin-1-yl)metha none], for which the IC50 with HCT116 MTAP KO cells (Homo sapiens, HCT-116, 144 h) stood at 16 nM; in the test with HCT116-WT cells (144 h) it was 717 nM. For the same compound, the “Selectivity HCT 116-WT/ HCT116 MTAP KO” value in the test with HCT116 MTAP KO cells was determined as 44.81.
The like results for `Cc1cc2cc(C(=O)N(Cc3ccc(-c4ccc(N5CCN(C)C(=O)C5)nc4)cn3)N(C)c3ncccn3)ccc2nc1N` [Example 258, 2-amino-N',3-dimethyl-N-((6'-(4-methyl-3-oxopiperazin-1-yl)-[3,3'-bipyridin]-6-yl)methyl)-N'-(pyrimidin-2-yl)quinoline-6-carbohydrazide] were, in that order, 31 nM, 716 nM and 23.10.
In the case of `Cc1cc2cc(C(=O)N(Cc3ccc(-c4cnn(C(F)F)c4)cn3)N(C)c3ncccn3)ccc2nc1N` [Example 213, 2-amino-N-((5-(1-(difluoromethyl)-1H-pyrazol-4-yl)pyridin-2-yl)methyl)-N',3-di methyl-N'-(pyrimidin-2-yl)quinoline-6-c arbohydrazide], in the test with HCT116 MTAP KO cells, the IC50 was 39 nM and the “Selectivity HCT 116-WT/ HCT116 MTAP KO” value amounted to 22.13. Moreover, in the test with HCT116-WT cells, the IC50 stood at 863 nM.
As for `Cc1cc2cc(C(=O)N(Cc3ccc(-c4nnn(C)n4)cn3)N(C)c3ncccn3)ccc2nc1N` [Example 231, 2-amino-N',3-dimethyl-N-((5-(2-methyl-2H-tetrazol-5-yl)pyridin-2-yl)methyl)-N'-(pyrimidin-2-yl)quinoline-6-carbohydrazide], the IC50 with HCT116 MTAP KO cells (Homo sapiens, HCT-116, 144 h) stood at 212 nM; with HCT116-WT cells (144 h) it was 2700 nM. Besides, in the test with HCT116 MTAP KO cells, the “Selectivity HCT 116-WT/ HCT116 MTAP KO” value is on record as 12.71.
On the same counts, the results for `Cc1cc2cc(C(=O)N(Cc3ccc(-c4cnn(C)n4)cn3)N(C)c3ncccn3)ccc2nc1N` [Example 228, 2-amino-N',3-dimethyl-N-((5-(2-methyl-2H-1,2,3-triazol-4-yl)pyridin-2-yl)methyl)-N'-(pyrimidin-2-yl)quinoline-6-carbohy drazide] are 51 nM, 1320 nM and 25.92.
In the case of `Cc1cc2cc(C(=O)N(Cc3ccc(C(F)(F)C(F)(F)F)cn3)N(C)c3ncccn3)ccc2nc1N` [Example 293, 2-amino-N,3-dimethyl-N-((5-(perfluoroethyl)pyridin-2-yl)methyl)-N-(pyrimidin-2-yl)q uinoline-6-carbohydrazide], the 50% inhibitory concentration (IC50) in the test on HCT116 MTAP KO cells (Homo sapiens, HCT-116, 144 h) is 25 nM; in the test with HCT116-WT cells (144 h), 666 nM. The “Selectivity HCT 116-WT/ HCT116 MTAP KO” value in the test with HCT116 MTAP KO cells is reported as 26.64.
The like results for `Cc1cc2cc(C(=O)N(Cc3ccc(-c4ccc(=O)[nH]c4)cn3)N(C)c3ncccn3)ccc2nc1N` [Example 143, 2-amino-N',3-dimethyl-N-((6'-oxo-1',6'-dihydro-[3,3'-bipyridine]-6-yl)methyl)-N'-(pyrimidin-2-yl)quinoline-6-carbohydrazide] were, in that order, 192 nM, 3360 nM and 17.49.
On the same counts, the results for `COC1(C)CN(C(=O)c2cc3c(cc2C)nc(N)c2cnn(C)c23)N(c2ncccc2F)C1` (stereo not shown) [Example 428, (4-amino-1,7-dimethyl-1H-pyrazolo[4,3-c]quinolin-8-yl)(2-(3-fluoropyridin-2-yl)-4-methoxy-4-methylpyrazolin-1-yl)methanone] are 12 nM, 321 nM and 26.75.
The like results for `CCn1cc(-c2ccc(CN(C(=O)c3ccc4nc(N)c(C)cc4c3)N(C)c3ncccn3)nc2)cn1` [Example 206, 2-amino-N-((5-(1-ethyl-1H-pyrazol-4-yl)pyridin-2-yl)methyl)-N',3-dimethyl-N'-(pyrimidin-2-yl)quinoline-6-carbohydrazide] were, in that order, 18 nM, 921 nM and 51.17.
Consider `Cc1cc2nc(N)c3cnn(C)c3c2cc1C(=O)N1CCCN1c1ncc(C2CCN(C)CC2)cc1F` [Example 485, (4-amino-1,7-dimethyl-1H-pyrazolo[4,3-c]quinolin-8-yl)(2-(3-fluoro-5-(1-methylpiperid-4-yl)pyridin-2-yl)pyrazolidin-1-yl)methanone], for which the IC50 with HCT116 MTAP KO cells (Homo sapiens, HCT-116, 144 h) stood at 415 nM; in the test on HCT116-WT cells (144 h), 4830 nM. In addition, the “Selectivity HCT 116-WT/ HCT116 MTAP KO” value with HCT116 MTAP KO cells came to 11.64.

A word on the IC50: it is the concentration needed to halve the response being measured.
